According to ChEMBL document CHEMBL1201862, “PubChem BioAssay data set” (2004):
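Five compound concentrations were applied to cells in 96-well plates for 48 hours; endpoints were derived by simple linear interpolation of the resulting dose-response curve. Here, GI50 denotes the concentration required for 50% inhibition of growth.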 Activity calls are given as the source filed them. Rule as the data show it: active = GI50 up to about 1.1 µM and inactive = higher.

Experiments:
Assay in all cases: NCI-60 cell line screen, 48 h
T47D = tested on: T47D
RPMI-8226 = tested on: RPMI-8226
Hs-578T = tested on: Hs-578T
UACC-62 = tested on: UACC-62
BT-549 = tested on: BT-549
NCI-H522 = tested on: NCI-H522
SF-295 = tested on: SF-295
HCT-116 = tested on: HCT-116
DU-145 = tested on: DU-145
MOLT-4 = tested on: MOLT-4
ACHN = tested on: ACHN
UACC-257 = tested on: UACC-257
HCC 2998 = tested on: HCC 2998
UO-31 = tested on: UO-31
KM12 = tested on: KM12
HOP-92 = tested on: HOP-92
IGROV-1 = tested on: IGROV-1
Malme-3M = tested on: Malme-3M
HL-60 = tested on: HL-60

| SMILES | GI50 (T47D) | GI50 (RPMI-8226) | GI50 (Hs-578T) | GI50 (UACC-62) | GI50 (BT-549) | GI50 (NCI-H522) | GI50 (SF-295) | GI50 (HCT-116) | GI50 (DU-145) | GI50 (MOLT-4) | GI50 (ACHN) | GI50 (UACC-257) | GI50 (HCC 2998) | GI50 (UO-31) | GI50 (KM12) | GI50 (HOP-92) | GI50 (IGROV-1) | GI50 (Malme-3M) | GI50 (HL-60) |
| --- | --- | --- | --- | --- | --- | --- | --- | --- | --- | --- | --- | --- | --- | --- | --- | --- | --- | --- | --- |
| CCOP(=O)(OCC)C(c1ccccc1)N(C(=O)NC(F)(F)F)c1ccc(C)cc1 (stereo not drawn) | 83.4 µM (inactive) | > 100 µM (inactive) | 69.5 µM (inactive) | > 100 µM (inactive) | > 100 µM (inactive) | > 100 µM (inactive) | > 100 µM (inactive) | > 100 µM (inactive) | > 100 µM (inactive) | > 100 µM (inactive) | > 100 µM (inactive) | > 100 µM (inactive) | > 100 µM (inactive) | > 100 µM (inactive) | > 100 µM (inactive) | 19.1 µM (inactive) | > 100 µM (inactive) | > 100 µM (inactive) | > 100 µM (inactive) |
| COc1ccc2nc3cc([N+](=O)[O-])ccc3c(NNc3ccc(Cl)cc3)c2c1 | 32.5 µM (inactive) | 22.8 µM (inactive) | 29.9 µM (inactive) | 2.44 µM (inactive) | 29.9 µM (inactive) | 22.6 µM (inactive) | 56.8 µM (inactive) | 5.07 µM (inactive) | 38.9 µM (inactive) | 26.1 µM (inactive) | 32.9 µM (inactive) | 1.01 µM (active) | 8.39 µM (inactive) | 34.3 µM (inactive) | 26.1 µM (inactive) | 20.9 µM (inactive) | 2.94 µM (inactive) | 43.2 µM (inactive) | 23.1 µM (inactive) |
| CC(O)CCNC(=O)Nc1c(C(F)(F)F)cc(-c2ccccc2)[nH]c1=O (stereo not drawn) | > 100 µM (inactive) | > 100 µM (inactive) | > 100 µM (inactive) | > 100 µM (inactive) | > 100 µM (inactive) | > 100 µM (inactive) | > 100 µM (inactive) | > 100 µM (inactive) | > 100 µM (inactive) | > 100 µM (inactive) | > 100 µM (inactive) | > 100 µM (inactive) | > 100 µM (inactive) | > 100 µM (inactive) | > 100 µM (inactive) | > 100 µM (inactive) | > 100 µM (inactive) | 47.3 µM (inactive) | 67.9 µM (inactive) |
| COc1ccc(CCN2COc3ccc4ccc(=O)oc4c3C2)cc1OC | > 100 µM (inactive) | 22.4 µM (inactive) | > 100 µM (inactive) | 50.2 µM (inactive) | > 100 µM (inactive) | > 100 µM (inactive) | > 100 µM (inactive) | 66.5 µM (inactive) | > 100 µM (inactive) | > 100 µM (inactive) | > 100 µM (inactive) | > 100 µM (inactive) | > 100 µM (inactive) | > 100 µM (inactive) | > 100 µM (inactive) | 21 µM (inactive) | > 100 µM (inactive) | > 100 µM (inactive) | 19.1 µM (inactive) |
| N#C[BH2-][n+]1cn(C2CC(OP(=O)(O)OCC3OC(n4cnc5c(=O)[nH]c(N)nc54)CC3O)C(CO)O2)c2nc(N)[nH]c(=O)c21 (stereo not drawn) | > 100 µM (inactive) | > 100 µM (inactive) | > 100 µM (inactive) | > 100 µM (inactive) | > 100 µM (inactive) | > 100 µM (inactive) | 74.3 µM (inactive) | > 100 µM (inactive) | > 100 µM (inactive) | 81.8 µM (inactive) | > 100 µM (inactive) | > 100 µM (inactive) | > 100 µM (inactive) | > 100 µM (inactive) | > 100 µM (inactive) | > 100 µM (inactive) | > 100 µM (inactive) | 70.5 µM (inactive) | > 100 µM (inactive) |
| Cc1ccc(/C=C2\CCCCCC2=O)cc1 | > 100 µM (inactive) | > 100 µM (inactive) | > 100 µM (inactive) | > 100 µM (inactive) | > 100 µM (inactive) | > 100 µM (inactive) | > 100 µM (inactive) | > 100 µM (inactive) | > 100 µM (inactive) | > 100 µM (inactive) | > 100 µM (inactive) | > 100 µM (inactive) | > 100 µM (inactive) | > 100 µM (inactive) | > 100 µM (inactive) | > 100 µM (inactive) | > 100 µM (inactive) | > 100 µM (inactive) | < 0.01 µM (active) |
| NC(=S)N/N=C/c1ncccc1N [TRIAPINE] | 4.39 µM (inactive) | 0.792 µM (active) | > 10 µM (inactive) | 0.546 µM (active) | 2.37 µM (inactive) | 2.03 µM (inactive) | 1.21 µM (inactive) | 0.986 µM (active) | 0.681 µM (active) | 0.438 µM (active) | 0.282 µM (active) | > 6.65 µM (inactive) | 1.62 µM (inactive) | 0.37 µM (active) | 4.59 µM (inactive) | 0.553 µM (active) | > 10 µM (inactive) | 1.87 µM (inactive) | 1.03 µM (active) |
